For one assay, the target named is T1, rat GPR55 (Rattus norvegicus, UniProt F1MAK4).
T1 construct: expressed in transfected cells; host or cells: HEK293 (human embryonic kidney) cells
T1 sequence (F1MAK4 1-319): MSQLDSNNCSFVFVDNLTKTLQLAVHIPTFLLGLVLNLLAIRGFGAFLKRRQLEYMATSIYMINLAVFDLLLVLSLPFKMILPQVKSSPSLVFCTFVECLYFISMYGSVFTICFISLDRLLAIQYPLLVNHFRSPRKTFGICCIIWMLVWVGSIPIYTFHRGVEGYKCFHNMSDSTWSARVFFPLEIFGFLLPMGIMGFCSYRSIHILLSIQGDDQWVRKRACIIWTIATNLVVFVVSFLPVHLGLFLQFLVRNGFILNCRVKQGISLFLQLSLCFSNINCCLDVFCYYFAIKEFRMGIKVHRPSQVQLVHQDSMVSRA
Nature of the assay: Ca2+ mobilization assay (FLIPR, Calcium5 dye), rat GPR55. The format is cell-based. The note with it: HEK293 cells co-expressing PK-tagged rat GPR55 and EA-tagged beta-arrestin; intracellular calcium increase. Here is the method: (§1) This cell-based assay measures the ability of compounds to activate the GPR55 receptor by measuring changes in intracellular calcium levels. HEK293 (human embryonic kidney) cells co-expressing recombinant ProLink (PK) tagged human or rat GPR55 and Enzyme Acceptor (EA) tagged beta-arrestin were seeded into PDL-coated, black-walled clear-bottom 384 well plates in assay buffer (25 mM HEPES, HBSS, 1 mM Probenicid, 0.1% BSA, pH 7.4) containing Calcium5 dye (Molecular Devices). Cells were incubated in suspension with the Calcium5 dye for 1 hour at 37° C., 5% CO2. Dilution series of the compounds in assay buffer were added to the cells in duplicate wells and compound-mediated real-time increases in intracellular calcium concentration were recorded as increased fluorescence using the Molecular Devices FLIPR instrument. Kinetic traces were reduced to a numerical value by subtracting the minimum response from the maximum response.

Another assay concerns the target T2, human GPR55 (Homo sapiens, UniProt Q9Y2T6).
T2 construct: expressed in transfected cells; host or cells: HEK293 (human embryonic kidney) cells
Nature of the assay: Ca2+ mobilization assay (FLIPR, Calcium5 dye), human GPR55. The format is cell-based. Conditions: HEK293 cells co-expressing PK-tagged human GPR55 and EA-tagged beta-arrestin; intracellular calcium increase. Here is the method:
as §1
A general note: Calcium assays in cells follow changes in intracellular calcium, usually with a dye or a luminescent sensor.

pEC50: −log10 of the molar value. A value given as a limit tells only on which side of the number the result lay.

This passage reports EC50 results from patent US20250282728A1, “NITROGEN COMPRISING HETEROCYCLIC DERIVATIVES FOR THE TREATMENT OF DISORDERS ASSOCIATED WITH GPR55 RECEPTOR” (Cerevance, Inc., priority 2022, published 2025).

T2 sequence (Q9Y2T6 whole entry): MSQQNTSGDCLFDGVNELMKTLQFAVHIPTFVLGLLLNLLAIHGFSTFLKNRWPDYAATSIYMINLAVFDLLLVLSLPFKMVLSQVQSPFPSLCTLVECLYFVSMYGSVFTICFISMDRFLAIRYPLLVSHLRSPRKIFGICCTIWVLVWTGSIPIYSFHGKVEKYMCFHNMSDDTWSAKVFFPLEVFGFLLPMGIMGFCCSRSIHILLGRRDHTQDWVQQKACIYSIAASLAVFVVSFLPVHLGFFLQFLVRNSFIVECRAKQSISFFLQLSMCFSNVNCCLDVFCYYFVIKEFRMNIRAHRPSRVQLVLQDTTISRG

As a reminder, the pEC50 is the negative decadic logarithm of the EC50, by convention in mol/L. On to `C[C@@H](Nc1ccc(-c2cncc(S(C)(=N)=O)c2)cn1)c1ccc(F)cc1` (mixture of isomers) [Example 27, (6′-(((R)-1-(4-fluorophenyl)ethyl)amino)-[3,3′-bipyridin]-5-yl)(imino)(methyl)-λ^6-sulfanone], for which the negative-log EC50 (pEC50) on rat GPR55 is at least 7.30. In the case of `CN=S(C)(=O)c1cncc(-c2ccc(N[C@H](C)c3ccc(F)cc3)nc2)c1` (mixture of isomers) [Example 30, (6′-(((R)-1-(4-fluorophenyl)ethyl)amino)-[3,3′-bipyridin]-5-yl)(methyl)(methylimino)-λ6-sulfanone], the pEC50 on rat GPR55 was at least 7.30. Consider `C[C@@H](Nc1cnc(-c2cncc(C(O)C(F)(F)F)c2)cn1)c1ccc(F)cc1` (mixture of isomers) [Example 32, 2,2,2-trifluoro-1-(5-(5-(((R)-1-(4-fluorophenyl)ethyl)amino)pyrazin-2-yl)pyridin-3-yl)ethan-1-ol], for which the negative-log EC50 (pEC50) on rat GPR55 is at least 7.30; at human GPR55, at least 6.70. Regarding `CC(O)c1cncc(-c2ccc(N[C@H](C)c3ccc(F)cc3)nc2)c1` (single isomer, unassigned) [Example 16a], the pEC50 on rat GPR55 was at least 7.30; at human GPR55, at least 6.00. Turning to `CC(O)c1cncc(-c2ccc(N[C@H](C)c3ccc(F)cc3)nc2)c1` (single isomer, unassigned) [Example 16b], the negative logarithm of the EC50 (pEC50) at rat GPR55 was at least 6.70; at human GPR55 it was at least 7.30. For `C[C@@H](Nc1ccc(-c2cncc(S(C)(=N)=O)c2)cn1)c1ccc(F)cc1` (single isomer, unassigned) [Example 27a], on rat GPR55, the pEC50 is at least 6.70. Turning to `C[C@@H](Nc1ccc(-c2cncc(S(C)(=N)=O)c2)cn1)c1ccc(F)cc1` (single isomer, unassigned) [Example 27b], the pEC50 at rat GPR55 was at least 6.00. As for `CC(Nc1cc(F)c(-c2cncc(S(C)(=O)=O)c2)cn1)c1ccc(F)cc1` (single isomer, unassigned) [Example 29a, 4-fluoro-N-(1-(4-fluorophenyl)ethyl)-5′-(methylsulfonyl)-[3,3′-bipyridin]-6-amine], the negative-log EC50 (pEC50) at rat GPR55 is at least 6.00; at human GPR55, at least 7.30. On to `CC(Nc1cc(F)c(-c2cncc(S(C)(=O)=O)c2)cn1)c1ccc(F)cc1` (single isomer, unassigned) [Example 29b, 4-fluoro-N-(1-(4-fluorophenyl)ethyl)-5′-(methylsulfonyl)-[3,3′-bipyridin]-6-amine], for which the figures for the pEC50 on rat GPR55 and on human GPR55 were at least 5.30 and at least 6.00, respectively. Turning to `CN=S(C)(=O)c1cncc(-c2ccc(N[C@H](C)c3ccc(F)cc3)nc2)c1` (single isomer, unassigned) [Example 30a], at rat GPR55, the negative-log EC50 (pEC50) was at least 7.30.

As for `CN=S(C)(=O)c1cncc(-c2ccc(N[C@H](C)c3ccc(F)cc3)nc2)c1` (single isomer, unassigned) [Example 30b], the negative logarithm of the EC50 (pEC50) at rat GPR55 is at least 6.00. Turning to `C[C@@H](Nc1cnc(-c2cncc(C(O)C(F)(F)F)c2)cn1)c1ccc(F)cc1` (single isomer, unassigned) [Example 32a], the negative-log EC50 (pEC50) on rat GPR55 and on human GPR55 was at least 7.30 each time.

With `C[C@@H](Nc1cnc(-c2cncc(C(O)C(F)(F)F)c2)cn1)c1ccc(F)cc1` (single isomer, unassigned) [Example 32b], the pEC50 on rat GPR55 was at least 6.00; on human GPR55 it was at least 7.30. In the case of `Cc1cncc(-c2ccc(NC(C)c3ccc(Cl)cc3)nc2)c1` (single isomer, unassigned) [Example 46a, N-(1-(4-chlorophenyl)ethyl)-5′-methyl-[3,3′-bipyridin]-6-amine], the pEC50 on rat GPR55 was at least 6.70; on human GPR55, at least 6.00. As for `C[C@@H](Nc1cnc(-c2cncc(C(O)C(F)F)c2)cn1)c1ccc(F)cc1` (single isomer, unassigned) [Example 54a], the pEC50 was at least 6.70 on rat GPR55 and at least 6.00 on human GPR55. Turning to `C[C@@H](Nc1cnc(-c2cncc(C(O)C(F)F)c2)cn1)c1ccc(F)cc1` (single isomer, unassigned) [Example 54b], the negative logarithm of the EC50 (pEC50) on rat GPR55 and on human GPR55 was at least 6.00 each time. Turning to `Cc1cc(C(C)Nc2ncc(-c3ccc4oc(=O)n(C)c4c3)nn2)ccc1F` (single isomer, unassigned) [Example 77a, 5-(3-((1-(4-fluoro-3-methylphenyl)ethyl)amino)-1,2,4-triazin-6-yl)-3-methylbenzo[d]oxazol-2(3H)-one], the negative-log EC50 (pEC50) at rat GPR55 and at human GPR55 was at least 6.00 each time.

In the case of `CC(Nc1ncc(-c2ccc3oc(=O)n(C)c3c2)nn1)c1ccc(Cl)c(Cl)c1` (single isomer, unassigned) [Example 78a, 5-(3-((1-(3,4-dichlorophenyl)ethyl)amino)-1,2,4-triazin-6-yl)-3-methylbenzo[d]oxazol-2(3H)-one], the pEC50 at rat GPR55 and on human GPR55 was at least 6.00 each time. In the case of `Cc1cncc(-c2ccc(NC(C)c3ccc(F)cc3)nc2)c1` (centres unmarked) [Example 1, N-(1-(4-fluorophenyl)ethyl)-5′-methyl-[3,3′-bipyridin]-6-amine], the pEC50 at rat GPR55 is at least 5.30. In the case of `Cc1cncc(-c2ccc(N[C@H](C)c3ccc(F)c(F)c3)nc2)c1` [Example 2, (R)-N-(1-(3,4-difluorophenyl)ethyl)-5′-methyl-[3,3′-bipyridin]-6-amine], the figures for the negative-log EC50 (pEC50) on rat GPR55 and at human GPR55 were at least 5.30 and at least 7.30, respectively. As to `Cc1cncc(-c2ccc(N[C@H](C)c3ccc(F)cc3)nc2)c1` [Example 3, (R)-N-(1-(4-fluorophenyl)ethyl)-5′-methyl-[3,3′-bipyridin]-6-amine], the pEC50 at rat GPR55 was at least 7.30.

Turning to `CCc1cncc(-c2ccc(N[C@H](C)c3ccc(F)cc3)nc2)c1` [Example 4, (R)-5′-ethyl-N-(1-(4-fluorophenyl)ethyl)-[3,3′-bipyridin]-6-amine], at rat GPR55, the negative logarithm of the EC50 (pEC50) was at least 6.00. Regarding `C[C@@H](Nc1ccc(-c2cncc(C3CC3)c2)cn1)c1ccc(F)cc1` [Example 5, (R)-5′-cyclopropyl-N-(1-(4-fluorophenyl)ethyl)-[3,3′-bipyridin]-6-amine], the pEC50 was at least 6.00 at rat GPR55 and at least 7.30 on human GPR55. As for `C[C@@H](Nc1ccc(-c2cncc(S(C)(=O)=O)c2)cn1)c1ccc(F)cc1` [Example 7, (R)-N-(1-(4-fluorophenyl)ethyl)-5′-(methylsulfonyl)-[3,3′-bipyridin]-6-amine], the pEC50 on rat GPR55 and on human GPR55 was at least 6.70 throughout. Consider `C[C@@H](Nc1ccc(-c2cncc(C(F)(F)F)c2)cn1)c1ccc(F)cc1` [Example 8, (R)-N-(1-(4-fluorophenyl)ethyl)-5′-(trifluoromethyl)-[3,3′-bipyridin]-6-amine], for which the negative logarithm of the EC50 (pEC50) at rat GPR55 is at least 7.30. For `C[C@@H](Nc1ccc(-c2cncc(Cl)c2)cn1)c1ccc(F)cc1` [Example 9, (R)-5′-chloro-N-(1-(4-fluorophenyl)ethyl)-[3,3′-bipyridin]-6-amine], the negative logarithm of the EC50 (pEC50) at rat GPR55 is at least 7.30; at human GPR55, at least 6.70. Take `Cc1cnc(C)c(-c2ccc(N[C@H](C)c3ccc(F)cc3)nc2)c1` [Example 10, (R)-N-(1-(4-fluorophenyl)ethyl)-2′,5′-dimethyl-[3,3′-bipyridin]-6-amine]: the pEC50 on rat GPR55 and on human GPR55 was at least 6.00 throughout.

As for `Cc1cncc(-c2ccc(N[C@H](C)c3ccc(F)cc3)nc2)c1C` [Example 11, (R)-N-(1-(4-fluorophenyl)ethyl)-4′,5′-dimethyl-[3,3′-bipyridin]-6-amine], the negative-log EC50 (pEC50) at rat GPR55 and on human GPR55 was at least 6.00 throughout. Regarding `C[C@@H](Nc1ccc(-c2cncc(N(C)C)c2)cn1)c1ccc(F)cc1` [Example 12, (R)-N6′-(1-(4-fluorophenyl)ethyl)-N5,N5-dimethyl-[3,3′-bipyridine]-5,6′-diamine], the negative-log EC50 (pEC50) on rat GPR55 is at least 5.30; on human GPR55, at least 6.00.

Turning to `C[C@@H](Nc1ncc(-c2cncc(S(C)(=O)=O)c2)cn1)c1ccc(F)cc1` [Example 25, (R)-N-(1-(4-fluorophenyl)ethyl)-5-(5-(methylsulfonyl)pyridin-3-yl)pyrimidin-2-amine], the negative logarithm of the EC50 (pEC50) on rat GPR55 is at least 5.30. In the case of `C[C@@H](Nc1cnc(-c2cncc(CC(F)(F)F)c2)cn1)c1ccc(F)cc1` [Example 53, (R)-N-(1-(4-fluorophenyl)ethyl)-5-(5-(2,2,2-trifluoroethyl)pyridin-3-yl)pyrazin-2-amine], the pEC50 at rat GPR55 was at least 5.30. Still for that read-out and setting: then `C[C@@H](Nc1ncc(-c2cncc(CC(F)(F)F)c2)nn1)c1ccc(F)cc1` [Example 55, (R)-N-(1-(4-fluorophenyl)ethyl)-6-(5-(2,2,2-trifluoroethyl)pyridin-3-yl)-1,2,4-triazin-3-amine], with at least 5.30; and `C[C@@H](Nc1ccc(-c2ccc3oc(=O)n(C)c3c2)cn1)c1ccc(F)cc1` [Example 60, (R)-5-(6-((1-(4-fluorophenyl)ethyl)amino)pyridin-3-yl)-3-methylbenzo[d]oxazol-2(3H)-one], with at least 6.00. `C[C@@H](Nc1ncc(-c2ccc3oc(=O)n(C)c3c2)nn1)c1ccc(F)cc1` [Example 64, (R)-5-(3-((1-(4-fluorophenyl)ethyl)amino)-1,2,4-triazin-6-yl)-3-methylbenzo[d]oxazol-2(3H)-one]: at rat GPR55, the pEC50 was at least 6.70.
